Patent US20250295119A1, “SPHERICAL NAN[…] FROM TMGMV IMPROVE SOIL TRANSPORT OF SMALL, HYDROPHOBIC AGROCHEMICALS” (THE REGENTS OF THE UNIVERSITY OF CALIFORNIA, priority 2022, published 2025)

Columns and labels:
C. elegans [1] = experiment: Pluronic F127 gel burrowing assay after treatment of C. elegans in solution; assay type: in vivo, Caenorhabditis elegans; settings: 10 μM ivermectin (normalized), 90 minutes incubation in solution, no soil passage
Experimental: (§1) As a final test, Applicant delivered IVN-SNPs against C. elegans (FIG. 4). Nematodes were incubated with SNPs, IVN-SNPs, and free IVN for 90 minutes in solution. In parallel, the same (IVN-)SNPs were passed through a soil column and collected before treating the C. elegans in solution. For all samples, Applicant performed a modified gel burrowing assay (FIG. 4A) by transferring the nematodes and casting them in Pluronic F127 in a well-plate^23. The surface was coated with E. coli OP-50 lysate to attract the nematodes, and the number of C. elegans which penetrated to the surface were counted. Nematode mobility was quantified based on their total track coverage using edge detection (FIGS. 4B-4D, FIG. 13, FIG. 14). The mobility was then estimated using the following equation: […]
Using the optimized Pluronic concentration of 26% w/w previously reported, Pluronic F127 solutions were stored at 4° C. to dissolve and stay soluble (Lesanpezeshki, L. et al., Scientific Reports 2019). […] After 2 hours, an 11×11 area scan at 4× magnification (Keyence BZ-X800 Fluorescence Microscope) was taken for each well. The number of nematodes on the surface were counted manually and the area fraction of their tracks was determined by edge detection and binary image transformation in ImageJ.

C. elegans [2] = experiment: Pluronic F127 gel burrowing assay with samples first passed through a 10 cm soil column; assay type: in vivo, Caenorhabditis elegans; settings: 10 μM ivermectin, collected fractions
Experimental: as §1
Magic Topsoil (Michigan Peat) was weighed and packed into a cylindrical column fitted with miracloth at the bottom. […] The band intensity of the fractions on SDS PAGE was determined using ImageJ. […]
Using the optimized Pluronic concentration of 26% w/w previously reported, Pluronic F127 solutions were stored at 4° C. to dissolve and stay soluble (Lesanpezeshki, L. et al., Scientific Reports 2019). […] After 2 hours, an 11×11 area scan at 4× magnification (Keyence BZ-X800 Fluorescence Microscope) was taken for each well. […]

ivermectin
reduction in surface velocity (C. elegans [1]): 4.5 fold
reduction in the number of nematodes on the surface (C. elegans [1]): 6 fold
reduction in surface velocity after passing through a soil column (C. elegans [2]): no reduction
reduction in the number of nematodes after passing through a soil column (C. elegans [2]): no reduction
